Laboratory results as given in paper PMC8961551, “Potential Anticancer Agents against Melanoma Cells Based on an As-Synthesized Thiosemicarbazide Derivative” (Biomolecules, 2022).

Tests used:
[1] = RP-TLC lipophilicity; type: physicochemical; conditions: for RMW (chromatographic lipophilicity parameter): RP-18 plates, methanol-water 65-95%, extrapolated to 0% methanol; for -S TLC (slope of linear equation): Table S3
Protocol: RP-TLC analysis was performed using RP-18 TLC silica gel 60 F254 plates (10 × 20 cm, Merck, Darmstadt, Germany) with a DS-II chromatographic horizontal chamber (CHROMDES, Lublin, Poland). The mobile phase consisted of methanol (POCH, Gliwice, Poland) and water with the following concentrations of methanol: 65–95% (%, v/v), with a concentration change every 5%. After drying, the spots were observed under a UV lamp with a wavelength of 254 nm.

[2] = RP-HPLC lipophilicity; type: physicochemical; conditions: for logkW (chromatographic lipophilicity parameter): Kinetex C18, methanol-water 55-80%, extrapolated to 0% methanol; for -S HPLC (slope of linear equation): Table S3
Protocol: RP-HPLC analysis was performed using a Merck-Hitachi LaChrom Elite System (Merck, Darmstadt, Germany) with diode array detector L-2455, thermostat L-2300, pump L-2130 and autosampler L-2200 with a Kinetex C18 (5µm; 150 × 4,6mm) chromatographic column (Phenomenex, Torrance, USA) as the stationary phase. The mobile phase consisted of methanol (Merck, Darmstadt, Germany) and water (double-distilled), which was degassed by use of the built-in membrane degasser. Subsequently, 5 μL methanolic solution (0.1%; m/v) of the selected samples was applied to the chromatographic column by use of a Hitachi L-2200 autosampler (LaChrom Elite, Hitachi-Merck, Darmstadt, Germany). The analysis was performed with a flow rate of 0.7 mL min^−1 in isocratic mode using various concentrations of organic modifier (methanol) in binary polar mobile phases; percentages of methanol in water were 55–80% (%, v/v) and changed by 5% per step. Chromatograms were detected at 254 nm and the temperature of the column was 25 °C. All experiments were repeated in triplicate and the final results were taken to be the arithmetic means. Dead time was measured using uracil (Calbiochem. Merck, Darmstadt, Germany).

[3] = tested on: melanoma line G-361; test: Annexin V / propidium iodide apoptosis assay (image cytometry); type: cell-based, human; conditions: G-361, 24 h, compound at IC50 concentration, representative histogram
Protocol: Cell apoptosis assays were performed using an NC 3000 system (Chemometec., Lillerød, Denmark) according to the manufacturer’s protocol for the Annexin V Assay. The G-361 cells were seeded in 6-well plates at a density of 2 × 10^5 cells/mL and the tested compounds with concentration IC50 were added when 70–80% of confluence was achieved. After 24 h incubation, cells were suspended in 100 μL of Annexin V binding buffer with 2 µL of Annexin V-CF488A conjugate (FITC-labeled annexin V) and 2 µL of Solution 15 (Hoechst33342 stains). In the next step, the cells were incubated for 15 min at 37 °C and subsequently centrifuged at 400× g for 5 min. Following the removal of the supernatant, the cell pellets were resuspended in 300 µL of Annexin V binding buffer and centrifuged twice under the conditions described above. Eventually, the cell pellets were resuspended in 100 µL of Annexin V binding buffer and 2 µL of Solution 16 (propidium iodide, which stains late apoptotic and necrotic cells) was added. The prepared samples were analyzed immediately using 2-chamber NC-Slides A2™ (Chemometec., Lillerød, Denmark) and the Annexin V Assay protocol. The obtained scatterplots were used to demarcate the percentage of healthy cells and early and late apoptotic cells. The experiment was performed three times with three replicates.

[4] = tested on: superoxide dismutase (SOD2); test: qRT-PCR relative mRNA expression, SOD2; type: cell-based, human; conditions: G-361, 48 h incubation, RQ = 2^-ΔΔCt, mean ± SD, control 1.001
Protocol: (§1) […] cell line was seeded into 6-well plates in the concentration of 4 × 10^5 cells/well. Thiosemicarbazide derivatives were added when 70–80% of confluence was achieved. After 48 h of incubation, 1 mL of TRIzol™ Reagent (Invitrogen, Carlsbad, CA, USA) was added to lyse the cells. Lysates were centrifuged for 5 min at 12,000× g at 4 °C, and clear supernatants were processed according to the manufacturer’s protocol. Then, reverse transcription was performed using NG dART RT-PCR kit (EURx, Gdańsk, Poland) and a Mastercycler gradient thermocycler (Eppendorf, Hamburg, Germany). Thermal profile of the reaction: 10 min at 25 °C, then 50 min at 50 °C, and 5 min at 85 °C. mRNA levels of the genes DHODH, 18SRNA, and BACT were assessed using TaqMan Fast Advanced Master Mix (ThermoFisher, Waltham, MA, USA). mRNA levels of the following genes: CAT, SOD2,18SRNA TBP were assessed using PowerUp SYBR Green Master Mix (ThermoFisher, Waltham, MA, USA) in a 7500 Fast Real-Time PCR System (ThermoFisher, Waltham, MA, USA). Thermal profile of the reactions performed: 20 s at 95 °C, followed by 40 cycles of 3 s at 95 °C and 30 s at 60 °C. The reaction was carried out in triplicates. Relative expression of the tested genes was determined by qRT-PCR and the ΔΔCt method. The statistical analysis was performed with RQ values (relative quantification, RQ = 2^−∆ΔCt).

[5] = tested on: dihydroorotate dehydrogenase (DHODH); test: qRT-PCR relative mRNA expression, DHODH; type: cell-based, human; conditions: G-361, 48 h incubation, RQ = 2^-ΔΔCt, mean ± SD, control 1.000
Protocol: as §1

SMILES	RMW (chromatographic lipophilicity parameter) [1]	-S TLC (slope of linear equation) [1]	logkW (chromatographic lipophilicity parameter) [2]	-S HPLC (slope of linear equation) [2]	Q1ll, normal cells [3] [%]	Q1lr, early apoptotic cells [3] [%]	Q1ul, necrotic cells [3] [%]	Q1ur, late apoptotic cells [3] [%]	Relative mRNA expression level SOD2 (RQ) [4]	Relative mRNA expression level DHODH (RQ) [5]
O=C(COc1ccc(Cl)cc1Cl)NNC(=S)Nc1cccc2ccccc12 [PK9, 1-(2,4-dichlorophenoxy)acetyl-4-(1-naphtyl)thiosemicarbazide]	3.1398	3.8345	4.6425	6.1619	32	28	1	39	1.293 ± 0.100	0.375 ± 0.018
CSc1ccc(NC(=S)NNC(=O)COc2ccc(Cl)cc2Cl)cc1 [PK2, 1-(2,4-dichlorophenoxy)acetyl-4-(4-metylothiophenyl)thiosemicarbazide]	3.2058	3.8253	4.7804	6.3581	52	7	2	39	1.486 ± 0.056	0.463 ± 0.016
O=C(COc1ccc(Cl)cc1Cl)NNC(=S)Nc1ccccc1I [PK6, 1-(2,4-dichlorophenoxy)acetyl-4-(2-iodophenyl)thiosemicarbazide]	2.8125	3.3436	4.1439	5.4574	30	17	4	49	1.249 ± 0.080	0.824 ± 0.030
